From patent US12545637B2, “Extrahepatic targeted cationic lipid compound with high efficiency and low toxicity and its composition” (BEIJING YOUCARE KECHUANG PHARMACEUTICAL TECHNOLOGY CO., LTD., priority 2023, dated 2026)

Tests used:
[1] = Detection of encapsulation efficiency, drug loading concentration and total RNA concentration (RiboGreen); assay type: physicochemical; conditions: for Drug loading concentration / Encapsulation efficiency / Total RNA concentration: LNP formulation prepared from the cationic lipid; for encapsulation efficiency higher than ALC-0315: difference vs ALC-0315; for encapsulation efficiency higher than HIMA: difference vs HIMA (HHMA); for encapsulation efficiency higher than SM-102: difference vs SM-102; for encapsulation efficiency higher than YK-009: difference vs YK-009; for encapsulation efficiency higher than compound 21: difference vs compound 21; for encapsulation efficiency higher than compound 23: difference vs compound 23; for drug loading concentration, times that of ALC-0315 / total RNA concentration, times that of ALC-0315: ratio vs ALC-0315; for drug loading concentration, times that of HIMA / total RNA concentration, times that of HIMA: ratio vs HIMA (HHMA); for drug loading concentration, times that of SM-102 / total RNA concentration, times that of SM-102: ratio vs SM-102; for drug loading concentration, times that of YK-009 / total RNA concentration, times that of YK-009: ratio vs YK-009; for drug loading concentration, times that of compound 21 / total RNA concentration, times that of compound 21: ratio vs compound 21; for drug loading concentration, times that of compound 23 / total RNA concentration, times that of compound 23: ratio vs compound 23
Summary of the method: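 Samples were diluted in 1×TE to about […], combined with TE and 0.1% Triton X-100 buffers, and held at 37 °C for 10 minutes before dye addition.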

293T cells = assay: Cell transfection test of LNP formulation of eGFP-mRNA (optimization of preparation conditions); assay type: cell-based; conditions: for transfection efficiency at different molar ratios of polymer-conjugated lipid DMG-PEG2000 to carrier: 0.5% to 15%; for transfection effect at different molar ratios of cationic lipid, neutral lipid, structured lipid and polymer-conjugated lipid: 75:5:15:5 to 25:5:65:5
Procedure: The cationic lipid compound YK-407 synthesized in Example 1 was dissolved in ethanol with DSPC (AVT (Shanghai) Pharmaceutical Technology Co., Ltd.), cholesterol (AVT (Shanghai) Pharmaceutical Technology Co., Ltd.) and DMG-PEG2000 according to a molar ratio of 49:10:39.5:1.5, respectively, to prepare an ethanol lipid solution. The ethanol lipid solution was quickly added to citrate buffer (pH=4-5) by ethanol injection method, and vortexed for 30s for later use. eGFP-mRNA was diluted in citrate buffer (pH=4-5) to give an aqueous mRNA solution. A certain volume of liposome solution and mRNA aqueous solution were used to prepare liposomes at weight ratios of total lipids to mRNA of 5:1, 10:1, 15:1, 20:1, 30:1 and 35:1, respectively. The mixtures were sonicated at 25° C. for 15 min (with an ultrasonic frequency of 40 kHz and an ultrasonic power of 800 W). The resulted liposomes were diluted to 10 times volume with PBS, and then ultrafiltered with a 300KDa ultrafiltration tube to remove ethanol. Then the volume was fixed to a certain volume with PBS to give an LNP formulation encapsulating eGFP-mRNA using cationic lipid YK-407/DSPC/cholesterol/DMG-PEG2000 (49:10:39.5:1.5 in molar percentage).
The LNP formulation encapsulating eGFP-mRNA was prepared according to the method in 1, wherein the molar ratios of cationic lipid YK-407 to neutral lipid DSPC were 1:1, 3:1, 3.5:1, 4:1, 4.5:1, 4.9:1, 10:1, 15:1 and 20:1.
The LNP formulation encapsulating eGFP-mRNA was prepared according to the method in 1, wherein the cationic lipid in the carrier was YK-407, and the molar ratios of the polymer-conjugated lipid DMG-PEG2000 to the carrier were 0.5%, 1.5%, 3.5%, 5%, 10% and 15%, respectively.
The LNP formulation encapsulating eGFP-mRNA was prepared according to the method in 1, wherein the molar ratios of cationic lipid YK-407, neutral lipid DSPC, structured lipid cholesterol and polymer-conjugated lipid DMG-PEG2000 were 75:5:15:5, 49:10:39.5:1.5, 45:10:43.5:1.5, 45:25:20:10, 40:10:48.5:1.5, 35:10:53.5:1.5 and 25:5:65:5, respectively.
Cell recovery and passage: 293T cells were recovered, cultured in a culture dish, and passaged to the required number of cells.
Seeding plate: The cells in the culture dish were digested and counted. Cells were spread in a 96-well plate at 10,000 cells per well and in a 12-well plate at 150,000 cells per well. Cells were cultured overnight until the cells adhered to the wall.
Cell transfection test: The LNP formulation containing 1.5 μg of eGFP-mRNA prepared in Example 2 (the cationic lipid in the carrier was YK-407) and the Lipofectamin 3000 formulation of eGFP-mRNA were added respectively to the cell culture medium of the 12-well plate, and further incubated for 24 hours. The transfection efficiency of different samples was then investigated according to the fluorescence intensity by observing with a fluorescence microscope.

female BALB/C mice = assay: Distribution of liposomes in mice (protein expression in liver, spleen, lung, heart and kidney); assay type: in vivo; conditions: mouse, in vivo
Procedure: The LNP formulation (prepared according to Example 4) containing […] Fluc-mRNA was injected intramuscularly into female BALB/C mice aged 4-6 weeks and weighed 17-19 g, and the mice were intraperitoneally injected with fluorescent imaging substrate at specific time points after administration (6h, 24 h, 48h and 7d), where the mice were allowed to free move for 5 minutes, and then the average radiation intensity (corresponding to fluorescence expression intensity) of the protein expression of the mRNA carried by the LNP in the mice was detected by the IVIS Spectrum small animal in vivo imaging system.
Current mRNA vaccines usually express proteins in muscle.

| SMILES | Drug loading concentration [1] | Encapsulation efficiency [1] | Total RNA concentration [1] | encapsulation efficiency higher than ALC-0315 [1] | encapsulation efficiency higher than HIMA [1] | encapsulation efficiency higher than SM-102 [1] | encapsulation efficiency higher than YK-009 [1] | encapsulation efficiency higher than compound 21 [1] | encapsulation efficiency higher than compound 23 [1] | drug loading concentration, times that of ALC-0315 [1] | total RNA concentration, times that of ALC-0315 [1] | drug loading concentration, times that of HIMA [1] | total RNA concentration, times that of HIMA [1] | drug loading concentration, times that of SM-102 [1] | total RNA concentration, times that of SM-102 [1] | drug loading concentration, times that of YK-009 [1] | total RNA concentration, times that of YK-009 [1] | drug loading concentration, times that of compound 21 [1] | total RNA concentration, times that of compound 21 [1] | drug loading concentration, times that of compound 23 [1] | also measured |
| --- | --- | --- | --- | --- | --- | --- | --- | --- | --- | --- | --- | --- | --- | --- | --- | --- | --- | --- | --- | --- | --- |
| CCCCCCCCC(CCCCCCCC)C(=O)OCCCCCCN(CCO)CCN(CCO)CCCCCCOC(=O)C(CCCCCCCC)CCCCCCCC [YK-402] | 37.67 µg/mL | 91.0% | 40.09 µg/mL | 27.7% | 30.8% | 28.1% | 27.6% | 33.0% | 34.8% | 1.40 | 1.06 | 1.15 | 1.10 | 1.42 | 1.11 | 1.37 | 1.04 | 1.71 | 1.39 | 1.88 | total RNA concentration, times that of compound 23 [1]: 1.29; transfection efficiency at different molar ratios of polymer-conjugated lipid DMG-PEG2000 to carrier (293T cells): same results; transfection effect at different molar ratios of cationic lipid, neutral lipid, structured lipid and polymer-conjugated lipid (293T cells): same results; protein expression in the liver (female BALB/C mice; female, BALB/C, 6 h): reduced compared with SM-102; protein expression in the liver (female BALB/C mice): had protein expression in the liver; protein expression in the spleen (female BALB/C mice): had protein expression in the spleen |
| CCCCCCCCCCCOC(=O)CCCN(CCO)CCN(CCO)CCCCCC(=O)OC(CCCCCCCC)CCCCCCCC [YK-407] | 35.67 µg/mL | 85.2% | 40.77 µg/mL | 21.9% | 25.0% | 22.3% | 21.8% | 27.2% | 29.0% | 1.33 | 1.08 | 1.09 | 1.12 | 1.34 | 1.13 | 1.30 | 1.06 | 1.62 | 1.41 | 1.78 | total RNA concentration, times that of compound 23 [1]: 1.31; transfection efficiency at different molar ratios of polymer-conjugated lipid DMG-PEG2000 to carrier (293T cells): the transfection efficiency was the highest when the molar ratio was 1.5%; transfection effect at different molar ratios of cationic lipid, neutral lipid, structured lipid and polymer-conjugated lipid (293T cells): the transfection effect was the best when the ratio was 40:10:48.5:1.5; transfection efficiency at different molar ratios of cationic lipid to neutral lipid DSPC (293T cells; ratios 1:1 to 20:1): the transfection efficiency was the highest at the molar ratio of cationic lipid to neutral lipid of 4:1; transfection effect at different weight ratios of carrier to mRNA (293T cells; ratios 5:1, 10:1, 15:1, 20:1, 30:1 and 35:1): the ratio of 15:1 had the best transfection effect; protein expression in the liver (female BALB/C mice): had no protein expression in the liver; protein expression in the spleen (female BALB/C mice): had protein expression in the spleen |
